Where “and” joins values, the source holds several entries; their conditions need not be identical. Identical values can stand only once.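 Briefly, cells in 96-well plates were exposed to five compound concentrations for 48 h, and endpoints were estimated by linear interpolation. The concentration for 50% growth inhibition is given as GI50.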 Calls of active or inactive are those of the source. Cut-off read from the data, not from the text of the source: active = GI50 up to about 1.1 µM and inactive = higher.
Tests used:
Assay in all cases: DTP human tumour cell line panel, 48 h
HT-29 = test system: HT-29
K562 = test system: K562
M19-MEL = test system: M19-MEL
Malme-3M = test system: Malme-3M
NCI-H522 = test system: NCI-H522
RPMI-8226 = test system: RPMI-8226
786-0 = test system: 786-0
A498 = test system: A498
A549 = test system: A549
ACHN = test system: ACHN
BT-549 = test system: BT-549
CAKI-1 = test system: CAKI-1
CCRF-CEM = test system: CCRF-CEM
COLO 205 = test system: COLO 205
DU-145 = test system: DU-145
EKVX = test system: EKVX
HCC 2998 = test system: HCC 2998
HCT-116 = test system: HCT-116
HCT-15 = test system: HCT-15
HL-60 = test system: HL-60
HOP-62 = test system: HOP-62
HOP-92 = test system: HOP-92
Hs-578T = test system: Hs-578T
IGROV-1 = test system: IGROV-1
KM12 = test system: KM12
LOX IMVI = test system: LOX IMVI
M14 = test system: M14
MCF7 = test system: MCF7
MDA-MB-231 = test system: MDA-MB-231
MDA-MB-435 = test system: MDA-MB-435
MDA-N = test system: MDA-N
MOLT-4 = test system: MOLT-4
NCI-H226 = test system: NCI-H226
NCI-H23 = test system: NCI-H23
NCI-H460 = test system: NCI-H460
NCI/ADR-RES = test system: NCI/ADR-RES
OVCAR-3 = test system: OVCAR-3
OVCAR-4 = test system: OVCAR-4
OVCAR-5 = test system: OVCAR-5
OVCAR-8 = test system: OVCAR-8
PC-3 = test system: PC-3
RXF 393 = test system: RXF 393
SF-268 = test system: SF-268
SF-295 = test system: SF-295
SF-539 = test system: SF-539
SK-MEL-28 = test system: SK-MEL-28
SK-MEL-2 = test system: SK-MEL-2
SK-MEL-5 = test system: SK-MEL-5
SK-OV-3 = test system: SK-OV-3
SN12C = test system: SN12C
SNB-19 = test system: SNB-19
SNB-75 = test system: SNB-75
SR = test system: SR
SW-620 = test system: SW-620
T47D = test system: T47D
TK-10 = test system: TK-10
U-251 = test system: U-251
UACC-257 = test system: UACC-257
UACC-62 = test system: UACC-62
UO-31 = test system: UO-31

## COc1ccc(C(c2ccccc2)C(C)C(=O)c2c(C)cc(C)cc2C)cc1 (centres undefined)
HT-29
  GI50: 47.4 µM (inactive) and 56 µM (inactive)
K562
  GI50: 94.2 µM (inactive) and 53.7 µM (inactive)
M19-MEL
  GI50: 42.5 µM (inactive) and 59 µM (inactive)
Malme-3M
  GI50: 57.7 µM (inactive)
NCI-H522
  GI50: 37.8 µM (inactive) and 53.5 µM (inactive)
RPMI-8226
  GI50: 69.8 µM (inactive) and 79.8 µM (inactive)

## O=[N+]([O-])/C(C(Cl)=C(Cl)Cl)=C(/Br)SCc1ccccc1
786-0
  GI50: 2.1 µM (inactive)
A498
  GI50: 7.01 µM (inactive)
A549
  GI50: 5.85 µM (inactive)
ACHN
  GI50: 2.64 µM (inactive)
BT-549
  GI50: 2 µM (inactive)
CAKI-1
  GI50: 2 µM (inactive)
CCRF-CEM
  GI50: 0.277 µM (active)
COLO 205
  GI50: 1.6 µM (inactive)
DU-145
  GI50: 12.9 µM (inactive)
EKVX
  GI50: 5.46 µM (inactive)
HCC 2998
  GI50: 7.21 µM (inactive)
HCT-116
  GI50: 1.73 µM (inactive)
HCT-15
  GI50: 2.07 µM
HL-60
  GI50: 0.222 µM (active)
HOP-62
  GI50: 15.5 µM (inactive)
HOP-92
  GI50: 1.77 µM (inactive)
HT-29
  GI50: 2.11 µM (inactive)
Hs-578T
  GI50: 11.7 µM (inactive)
IGROV-1
  GI50: 3.71 µM (inactive)
K562
  GI50: 467 nM (active)
KM12
  GI50: 13.4 µM (inactive)
LOX IMVI
  GI50: 1.56 µM (inactive)
M14
  GI50: 2.4 µM (inactive)
MCF7
  GI50: 2.84 µM (inactive)
MDA-MB-231
  GI50: 2.72 µM (inactive)
MDA-MB-435
  GI50: 1.47 µM (inactive)
MDA-N
  GI50: 1.87 µM (inactive)
MOLT-4
  GI50: 0.26 µM (active)
Malme-3M
  GI50: 2.88 µM (inactive)
NCI-H226
  GI50: 6.07 µM (inactive)
NCI-H23
  GI50: 3.22 µM (inactive)
NCI-H460
  GI50: 7.13 µM (inactive)
NCI-H522
  GI50: 1.71 µM (inactive)
NCI/ADR-RES
  GI50: 3.29 µM (inactive)
OVCAR-3
  GI50: 1.86 µM (inactive)
OVCAR-4
  GI50: 3.3 µM (inactive)
OVCAR-5
  GI50: 5.71 µM (inactive)
OVCAR-8
  GI50: 2.61 µM (inactive)
PC-3
  GI50: 2.79 µM (inactive)
RPMI-8226
  GI50: 656 nM (active)
RXF 393
  GI50: 1.79 µM (inactive)
SF-268
  GI50: 2.52 µM (inactive)
SF-295
  GI50: 15.9 µM (inactive)
SF-539
  GI50: 7.4 µM (inactive)
SK-MEL-28
  GI50: 1.89 µM (inactive)
SK-MEL-2
  GI50: 4.42 µM (inactive)
SK-MEL-5
  GI50: 2.96 µM (inactive)
SK-OV-3
  GI50: 22 µM (inactive)
SN12C
  GI50: 2.27 µM (inactive)
SNB-19
  GI50: 10.4 µM (inactive)
SNB-75
  GI50: 2.56 µM (inactive)
SR
  GI50: 0.375 µM (active)
SW-620
  GI50: 1.63 µM (inactive)
T47D
  GI50: 2.88 µM (inactive)
TK-10
  GI50: 3.08 µM (inactive)
U-251
  GI50: 4.48 µM (inactive)
UACC-257
  GI50: 3.18 µM (inactive)
UACC-62
  GI50: 3.42 µM (inactive)
UO-31
  GI50: 2.45 µM (inactive)

## CC(C)(C)c1cc(/C=C(\C#N)C2=NCCO2)cc(C(C)(C)C)c1O
786-0
  GI50: 3.28 µM (inactive)
A498
  GI50: 3.84 µM (inactive)
A549
  GI50: 4.44 µM (inactive)
ACHN
  GI50: 3.56 µM (inactive)
BT-549
  GI50: 3.43 µM (inactive)
CAKI-1
  GI50: 3.04 µM (inactive)
CCRF-CEM
  GI50: 2.4 µM (inactive)
COLO 205
  GI50: 1.91 µM (inactive)
DU-145
  GI50: 4.94 µM (inactive)
EKVX
  GI50: 4.99 µM (inactive)
HCC 2998
  GI50: 2.92 µM (inactive)
HCT-116
  GI50: 3.07 µM (inactive)
HCT-15
  GI50: 3.29 µM
HL-60
  GI50: 2.12 µM (inactive)
HOP-62
  GI50: 4.3 µM (inactive)
HOP-92
  GI50: 4.06 µM (inactive)
HT-29
  GI50: 3.2 µM (inactive)
Hs-578T
  GI50: 5.09 µM (inactive)
IGROV-1
  GI50: 6.58 µM (inactive)
K562
  GI50: 3590 nM (inactive)
KM12
  GI50: 3.57 µM (inactive)
LOX IMVI
  GI50: 5.96 µM (inactive)
M14
  GI50: 5.02 µM (inactive)
MCF7
  GI50: 3.4 µM (inactive)
MDA-MB-231
  GI50: 3.14 µM (inactive)
MDA-MB-435
  GI50: 4.47 µM (inactive)
MDA-N
  GI50: 4.42 µM (inactive)
MOLT-4
  GI50: 3.37 µM (inactive)
Malme-3M
  GI50: 7.26 µM (inactive)
NCI-H226
  GI50: 5.4 µM (inactive)
NCI-H23
  GI50: 3.44 µM (inactive)
NCI-H460
  GI50: 2.51 µM (inactive)
NCI-H522
  GI50: 3.2 µM (inactive)
NCI/ADR-RES
  GI50: 2.66 µM (inactive)
OVCAR-3
  GI50: 2.17 µM (inactive)
OVCAR-4
  GI50: 3.13 µM (inactive)
OVCAR-5
  GI50: 2.89 µM (inactive)
OVCAR-8
  GI50: 4.67 µM (inactive)
PC-3
  GI50: 2.65 µM (inactive)
RPMI-8226
  GI50: 1860 nM (inactive)
RXF 393
  GI50: 3.26 µM (inactive)
SF-268
  GI50: 4.61 µM (inactive)
SF-295
  GI50: 2.86 µM (inactive)
SF-539
  GI50: 3.77 µM (inactive)
SK-MEL-28
  GI50: 6.35 µM (inactive)
SK-MEL-2
  GI50: 2.75 µM (inactive)
SK-MEL-5
  GI50: 2.38 µM (inactive)
SK-OV-3
  GI50: 3.31 µM (inactive)
SN12C
  GI50: 2.94 µM (inactive)
SNB-19
  GI50: 4.43 µM (inactive)
SNB-75
  GI50: 2.42 µM (inactive)
SR
  GI50: 2.92 µM (inactive)
SW-620
  GI50: 4.06 µM (inactive)
T47D
  GI50: 2.64 µM (inactive)
TK-10
  GI50: 3.48 µM (inactive)
U-251
  GI50: 3.31 µM (inactive)
UACC-257
  GI50: 2.64 µM (inactive)
UACC-62
  GI50: 4.31 µM (inactive)
UO-31
  GI50: 2.73 µM (inactive)

From ChEMBL document CHEMBL1201862, “PubChem BioAssay data set” (2004)
